# According to article PMC4986100, “Design, Synthesis and Biological Evaluation of4-(Imidazolylmethyl)-2-(4-methylsulfonyl phenyl)-Quinoline Derivatives as Selective COX-2 Inhibitors and In-vitro Anti-breast Cancer Agents” (Iranian Journal of Pharmaceutical Research : IJPR, 2016):
# Experiments:
# COX-2 = target: T1, COX-2 (Ovis aries, UniProt P79208); test: biochemical; details: for Selectivity Index (COX-1 IC50/COX-2 IC50): in-vitro COX-2 selectivity index; for IC50: ovine COX-1/COX-2 assay kit, means of two determinations
# T1 construct: purchased Cayman Chemical
# T1 sequence (P79208 17-603): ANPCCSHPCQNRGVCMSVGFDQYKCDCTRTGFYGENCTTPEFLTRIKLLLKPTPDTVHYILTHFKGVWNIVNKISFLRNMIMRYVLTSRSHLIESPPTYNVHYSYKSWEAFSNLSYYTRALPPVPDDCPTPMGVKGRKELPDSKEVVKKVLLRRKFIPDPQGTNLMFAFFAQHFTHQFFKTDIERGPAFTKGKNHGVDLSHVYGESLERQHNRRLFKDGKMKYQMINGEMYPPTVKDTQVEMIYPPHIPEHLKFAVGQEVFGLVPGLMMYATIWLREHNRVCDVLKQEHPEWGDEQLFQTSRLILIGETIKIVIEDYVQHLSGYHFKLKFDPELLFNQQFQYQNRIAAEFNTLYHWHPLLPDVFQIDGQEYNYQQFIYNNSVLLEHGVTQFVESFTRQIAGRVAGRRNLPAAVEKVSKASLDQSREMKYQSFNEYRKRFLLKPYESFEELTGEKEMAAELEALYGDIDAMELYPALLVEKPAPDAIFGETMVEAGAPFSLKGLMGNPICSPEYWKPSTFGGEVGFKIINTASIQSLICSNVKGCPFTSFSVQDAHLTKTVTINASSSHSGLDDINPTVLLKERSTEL
# Description: (§1) In-vitro cyclooxygenase (COX) inhibition assays
# (§2) The assay was performed using an enzyme chemiluminescentkit (Cayman Chemical, MI, USA) according to our previously reportedmethod([17])The Cayman chemical chemiluminescent COX
# (§3) (ovine) inhibitor screening assay utilizes the heme-catalyzedhydroperoxidase activity of ovine cyclooxygenases to generateluminescence in the presence of a cyclic naphthalene hydrazideand the substrate arachidonic acid. Arachidonate-induced luminescencewas shown to be an index of real-time catalytic activity anddemonstrated the turnover inactivation of the enzyme. Inhibition
# COX-1 = target: T2, COX-1 (Ovis aries, UniProt P05979); test: biochemical; details: ovine COX-1/COX-2 assay kit; means of two determinations
# T2 construct: purchased Cayman Chemical
# T2 sequence (P05979 25-600): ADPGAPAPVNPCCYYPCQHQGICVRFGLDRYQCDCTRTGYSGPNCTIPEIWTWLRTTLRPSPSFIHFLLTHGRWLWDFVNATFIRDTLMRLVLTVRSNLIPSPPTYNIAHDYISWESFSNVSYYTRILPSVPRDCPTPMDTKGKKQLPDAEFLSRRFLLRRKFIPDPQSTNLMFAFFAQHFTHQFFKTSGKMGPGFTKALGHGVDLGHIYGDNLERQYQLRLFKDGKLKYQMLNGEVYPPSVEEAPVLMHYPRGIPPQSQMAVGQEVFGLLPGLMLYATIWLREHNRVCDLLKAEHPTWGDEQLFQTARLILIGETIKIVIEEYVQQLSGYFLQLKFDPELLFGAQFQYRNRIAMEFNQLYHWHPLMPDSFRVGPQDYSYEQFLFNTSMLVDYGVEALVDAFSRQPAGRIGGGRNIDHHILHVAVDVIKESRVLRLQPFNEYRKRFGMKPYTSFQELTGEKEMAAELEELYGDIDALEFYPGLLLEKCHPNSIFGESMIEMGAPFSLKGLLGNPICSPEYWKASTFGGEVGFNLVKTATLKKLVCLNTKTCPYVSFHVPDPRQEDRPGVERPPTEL
# Description: as §1, §2, §3
# MCF-7 cells = test: MTT cytotoxicity assay; format: cell-based, human; details: for Survival (%) of MCF-7 cells: MTT; for IC50: Homo sapiens, MCF7, 48 h, MTT assay, calculated after two days exposure
# Description: (§4) The human breast cancer T47D and MCF-7 cell lines were obtained from Pasteur Institute Cell Bank of IRAN (Tehran, IRAN). Cells were maintained in RPMI-1640(Gibco, UK) culture medium supplemented with 10% fetal bovine serum (Gibco, UK) and 100 U Ml^-1 of penicillin and […] of streptomycin (Gibco, UK) at 37 C in 5% CO2 incubator. All reagent and chemicals used in this experiment were of cell culture or molecular biology grade, purchased from different international sources.
# (§5) The MTT (3-[4, 5-dimethylthiazol-2-yl]-2,5-diphenyl tetrazolium bromide) based assay was performed by seeding 5000 cells (T47D and MCF-7) per 180 µL RPMI complete culture medium in each well of 96-well culture plates. The day after seeding, culture medium was changed with medium containing standard anti-tumor drug Doxorubicin as well as different concentrations of newly synthesized compounds and RPMI control (no drug). Cells were then incubated at 37 °C in 5% Co2 incubator for 48h and 72h. Then 25 µL of MTT solution (4mg Ml^-1) were added to each well and further incubated at 37 °C for 3h. At the end of incubation, formazan crystals were dissolved in 100 µL of DMSO and plates were read in a plate reader (TECAN, Austria) at 540 nm. This experiment was performed in triplicate determination each time ([18],[19]).
# T47D cells = test: MTT cytotoxicity assay; format: cell-based, human; details: for Survival (%) of T47D cells: MTT; for IC50: MTT assay, calculated after two days exposure
# Description: as §4, §5
SMILES,Selectivity Index (COX-1 IC50/COX-2 IC50) (COX-2),IC50 (COX-2) [µM],IC50 (COX-1) [µM],melting point [°C],"Survival (%) of MCF-7 cells (MCF-7 cells; 10 µM compound, 48 h exposure) [%]","Survival (%) of MCF-7 cells (MCF-7 cells; 10 µM compound, 72 h exposure) [%]",IC50 (MCF-7 cells) [µM],"Survival (%) of T47D cells (T47D cells; 25 µM compound, 48 h exposure) [%]","Survival (%) of T47D cells (T47D cells; 25 µM compound, 72 h exposure) [%]","IC50 (T47D cells; Homo sapiens, T47D, 48 h) [µM]",IC50 (T47D cells) [µM],"Survival (%) of MCF-7 cells (MCF-7 cells; doxorubicin at 250 nM (column head says 10 µM), 48 h) [%]","Survival (%) of MCF-7 cells (MCF-7 cells; doxorubicin at 250 nM (column head says 10 µM), 72 h) [%]","Survival (%) of T47D cells (T47D cells; doxorubicin at 100 nM, 48 h) [%]","Survival (%) of T47D cells (T47D cells; doxorubicin at 100 nM, 72 h) [%]"
"CS(=O)(=O)c1ccc(-c2cc(Cn3ccnc3)c3cccc(-c4ccccc4)c3n2)cc1 [Compound 9a, 4-((1H-Imidazol-1-yl)methyl)-2-(4-methylsulfonylphenyl)-8-phenyl-quinoline]",423.9,0.071,30.1,196 to 198,38.3,26.7,< 10,33.8,25.4,≤ 25,< 25,–,–,–,–
"Cc1ccc2c(Cn3ccnc3)cc(-c3ccc(S(C)(=O)=O)cc3)nc2c1C [Compound 9b, 4-((1H-Imidazol-1-yl)methyl)-2-(4-methylsulfonylphenyl)-7,8-dimethyl-quinoline]",288.9,0.09,26,218 to 219,61,47.2,–,66.2,69.5,50,–,–,–,–,–
"CS(=O)(=O)c1ccc(-c2cc(Cn3ccnc3)c3ccc4ccccc4c3n2)cc1 [Compound 9c, 4-((1H-Imidazol-1-yl)methyl)-2-(4-methylsulfonylphenyl)-benzo[h]-quinoline]",527.9,0.068,35.9,216 to 217,48.4,41.3,10,75.8,68.9,50,–,–,–,–,–
"COc1cccc2c1C(=O)c1c(O)c3c(c(O)c1C2=O)C[C@@](O)(C(=O)CO)C[C@@H]3O[C@H]1C[C@H](N)[C@H](O)[C@H](C)O1 [Doxorubicin, reference compound]",–,–,–,–,–,–,0.25,–,–,0.1,–,50.2,31.7,53.2,27.1

# The next lines start with results.
Selectivity Index (COX-1 IC50/COX-2 IC50) (COX-2),IC50 (COX-2) [µM],IC50 (COX-1) [µM],melting point [°C],SMILES,"Survival (%) of MCF-7 cells (MCF-7 cells; 10 µM compound, 48 h exposure) [%]","Survival (%) of MCF-7 cells (MCF-7 cells; 10 µM compound, 72 h exposure) [%]",IC50 (MCF-7 cells) [µM],"Survival (%) of T47D cells (T47D cells; 25 µM compound, 48 h exposure) [%]","Survival (%) of T47D cells (T47D cells; 25 µM compound, 72 h exposure) [%]","IC50 (T47D cells; Homo sapiens, T47D, 48 h) [µM]",IC50 (T47D cells) [µM],"Survival (%) of MCF-7 cells (MCF-7 cells; doxorubicin at 250 nM (column head says 10 µM), 48 h) [%]","Survival (%) of MCF-7 cells (MCF-7 cells; doxorubicin at 250 nM (column head says 10 µM), 72 h) [%]","Survival (%) of T47D cells (T47D cells; doxorubicin at 100 nM, 48 h) [%]","Survival (%) of T47D cells (T47D cells; doxorubicin at 100 nM, 72 h) [%]"
547.6,0.063,34.5,247 to 248,"CS(=O)(=O)c1ccc(-c2cc(Cn3ccnc3)c3ccc4c(c3n2)CCCC4)cc1 [Compound 9d, 4-((1H-Imidazol-1-yl)methyl)-7,8,9,10-tetrahydro-2-(4-methylsulfonylphenyl)-benzo[h]-quinoline]",4,0.7,< 5,49.1,26.1,25,–,–,–,–,–
179.9,0.072,13,189 to 190,"CS(=O)(=O)c1ccc(-c2cc(Cn3ccnc3)c3ccccc3n2)cc1 [Compound 9e, 4-((1H-Imidazol-1-yl)methyl)-2-(4-methylsulfonylphenyl)-quinoline]",67.2,58.2,–,47.4,47.5,50,25,–,–,–,–
